Literature values, collected in patent US9408814B2, “Modified release dosage form comprising desvenlafaxine or salts thereof” (WOCKHARDT LIMITED, priority 2010, dated 2016).
Read-outs that look alike come from different tables or passages of the source.

What was measured:
[1] = at pH 7.0
[2] = not given; remark: listed apart in the source

Row | Compound | octanol:aqueous system partition coefficient [1] | pKa (dimethylamino group) | pKa (phenolic group) | pH dependence of solubility ([2]; solubility increases at lower pH) | solubility in water ([2]; water) | solubility at gastric pH ([2]; gastric pH) | solubility at intestinal pH ([2]; intestinal pH)
1 | CN(C)CC(c1ccc(O)cc1)C1(O)CCCCC1 (stereo not shown) [Desvenlafaxine succinate] | 0.21 | 8.34 | 10.11 | pH dependent | soluble in water | – | –
2 | CN(C)CC(c1ccc(O)cc1)C1(O)CCCCC1.O=C(O)CCC(=O)O (stereo not shown) [Desvenlafaxine, RS-4-[2-dimethylamino-1-(1-hydroxycyclohexyl)ethyl]phenol] | – | – | – | – | – | relatively good solubility | poor solubility
